{
  "source": "patent US4908452A",
  "about": "“Process for preparing nitriles” (Merck & Co., Inc., priority 1987, dated 1990)",
  "tested_on": "Factor XIIIa",
  "assay": "Factor XIIIa inhibitor assay (14C-putrescine incorporation into N,N-dimethyl-casein)",
  "assay_type": "biochemical, human",
  "method": "The Factor XIIIa inhibitor activity may be determined by an assay described in Methods in Enzymology, Vol. 45, Ch 15, pages 177-191 (1976) and using Factor XIII isolated from human plasma. Briefly, the assay is carried out by adding a substrate mixture of ^14 C-putrescine and N,N-dimethyl-casein to an Factor XIII assay mixture previously prepared by adding thrombin and dithiothreitol to Factor XIII in glycerol/water and tris(hydroxymethyl)aminomethane hydrochloride and then adding calcium ions, thereafter, incubating at 37° for 20 minutes, withdrawing samples to a filter disk, precipitating the casein with trichloracetic acid and then counting to determine the extent of incorporation of inhibitor of ^14 C-putrescine in casein. The result for 3-(1-oxo-4,7-nonadienyl)-oxiranecarbonitrile was 60 percent inhibition at 3 mM.",
  "data": [
    {"smiles": "C/C=C/C/C=C/CCC(=O)[C@H]1O[C@H]1C#N", "note": "[3-(1-oxo-4,7-nonadienyl)oxirane-carbonitrile]", "values": [
      {"measurement": "percent inhibition of Factor XIIIa", "setting": "at 3 mM, Factor XIII isolated from human plasma, 37° for 20 minutes", "result": 60, "unit": "%"},
      {"measurement": "inhibitory activity against Factor XIIIa (statement in words)", "setting": "plasma transglutaminase enzyme", "result": "inhibitory activity against Factor XIIIa"}
    ]}
  ]
}
